Assay results taken from the supplement of paper PMC10307832.

Columns and labels:
Experiment in all cases: relative viability (nuclei count vs DMSO), 5 days (fraction); higher = more cells survive
Avagacestat = compound: NC(=O)[C@@H](CCC(F)(F)F)N(Cc1ccc(-c2ncon2)cc1F)S(=O)(=O)c1ccc(Cl)cc1 [Avagacestat]
Procedure, shortened: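 Following overnight incubation at 37 °C, lung cancer cell lines in 1536-well plates were pinned with five library-drug doses (not always all listed) in √10 steps on vehicle-anchored plates. The cells then spent 5 days without medium change before a combined fix, permeabilisation and Hoechst stain, 4× imaging and MetaXpress nuclear counts. Viability is the treated-to-vehicle ratio of nuclei, taken as the median across plates. Only plates with control CV below 25% and at least one doubling passed.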

Avagacestat + Bortezomib = compound: NC(=O)[C@@H](CCC(F)(F)F)N(Cc1ccc(-c2ncon2)cc1F)S(=O)(=O)c1ccc(Cl)cc1 [Avagacestat] + CC(C)C[C@H](NC(=O)[C@H](Cc1ccccc1)NC(=O)c1cnccn1)B(O)O [Bortezomib] (partner 0.002 µM)
Procedure, shortened: (§1)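 Nuclei were stained with Hoechst during a one-step fixation (final 0.05% Triton X-100, 1% formaldehyde, 1 ug/ml Hoechst) carried out 5 days after dosing, then counted on 4× images. The cells, lung cancer lines in 1536-well plates, had been dosed by pin tool the day after seeding with one drug alone or a fixed anchor-drug dose plus five library-drug doses (not always all listed) in √10 steps. Relative viability is the nuclei count in treated wells divided by that in vehicle wells, and each value is the median of duplicate plates.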

Avagacestat + Navitoclax = compound: NC(=O)[C@@H](CCC(F)(F)F)N(Cc1ccc(-c2ncon2)cc1F)S(=O)(=O)c1ccc(Cl)cc1 [Avagacestat] + CC1(C)CCC(c2ccc(Cl)cc2)=C(CN2CCN(c3ccc(C(=O)NS(=O)(=O)c4ccc(N[C@H](CCN5CCOCC5)CSc5ccccc5)c(S(=O)(=O)C(F)(F)F)c4)cc3)CC2)C1 [Navitoclax] (partner 0.5 µM)
Procedure, shortened: as §1

Avagacestat + Foretinib = compound: NC(=O)[C@@H](CCC(F)(F)F)N(Cc1ccc(-c2ncon2)cc1F)S(=O)(=O)c1ccc(Cl)cc1 [Avagacestat] + COc1cc2c(Oc3ccc(NC(=O)C4(C(=O)Nc5ccc(F)cc5)CC4)cc3F)ccnc2cc1OCCCN1CCOCC1 [Foretinib] (partner 0.25 µM)
Procedure, shortened: as §1

Avagacestat + Lapatinib = compound: NC(=O)[C@@H](CCC(F)(F)F)N(Cc1ccc(-c2ncon2)cc1F)S(=O)(=O)c1ccc(Cl)cc1 [Avagacestat] + CS(=O)(=O)CCNCc1ccc(-c2ccc3ncnc(Nc4ccc(OCc5cccc(F)c5)c(Cl)c4)c3c2)o1 [Lapatinib] (partner 2 µM)
Procedure, shortened: as §1

Avagacestat + Pictilisib = compound: NC(=O)[C@@H](CCC(F)(F)F)N(Cc1ccc(-c2ncon2)cc1F)S(=O)(=O)c1ccc(Cl)cc1 [Avagacestat] + CS(=O)(=O)N1CCN(Cc2cc3nc(-c4cccc5[nH]ncc45)nc(N4CCOCC4)c3s2)CC1 [Pictilisib] (partner 1 µM)
Procedure, shortened: as §1

Avagacestat + Crizotinib = compound: NC(=O)[C@@H](CCC(F)(F)F)N(Cc1ccc(-c2ncon2)cc1F)S(=O)(=O)c1ccc(Cl)cc1 [Avagacestat] + C[C@@H](Oc1cc(-c2cnn(C3CCNCC3)c2)cnc1N)c1c(Cl)ccc(F)c1Cl [Crizotinib] (partner 1 µM)
Procedure, shortened: as §1

Avagacestat + Linsitinib = compound: NC(=O)[C@@H](CCC(F)(F)F)N(Cc1ccc(-c2ncon2)cc1F)S(=O)(=O)c1ccc(Cl)cc1 [Avagacestat] + C[C@]1(O)C[C@@H](c2nc(-c3ccc4ccc(-c5ccccc5)nc4c3)c3c(N)nccn32)C1 [Linsitinib] (partner 1 µM)
Procedure, shortened: as §1

Avagacestat + Alpelisib = compound: NC(=O)[C@@H](CCC(F)(F)F)N(Cc1ccc(-c2ncon2)cc1F)S(=O)(=O)c1ccc(Cl)cc1 [Avagacestat] + Cc1nc(NC(=O)N2CCC[C@H]2C(N)=O)sc1-c1ccnc(C(C)(C)C(F)(F)F)c1 [Alpelisib] (partner 2 µM)
Procedure, shortened: as §1

Avagacestat + AZD7762 = compound: NC(=O)[C@@H](CCC(F)(F)F)N(Cc1ccc(-c2ncon2)cc1F)S(=O)(=O)c1ccc(Cl)cc1 [Avagacestat] + NC(=O)Nc1cc(-c2cccc(F)c2)sc1C(=O)N[C@H]1CCCNC1 [AZD7762] (partner 0.2 µM)
Procedure, shortened: as §1

Avagacestat + Olaparib = compound: NC(=O)[C@@H](CCC(F)(F)F)N(Cc1ccc(-c2ncon2)cc1F)S(=O)(=O)c1ccc(Cl)cc1 [Avagacestat] + O=C(c1cc(Cc2n[nH]c(=O)c3ccccc23)ccc1F)N1CCN(C(=O)C2CC2)CC1 [Olaparib] (partner 8 µM)
Procedure, shortened: as §1

NCI-H1703
relative viability (Avagacestat; 0.08 µM): 1.24
relative viability (Avagacestat; 0.253 µM): 1.03
relative viability (Avagacestat; 0.8 µM): 0.975
relative viability (Avagacestat; 2.53 µM): 0.955
relative viability (Avagacestat; 8 µM): 0.873
relative viability (Avagacestat + Bortezomib; first compound 0.08 µM): 0.403
relative viability (Avagacestat + Bortezomib; first compound 0.253 µM): 0.422
relative viability (Avagacestat + Bortezomib; first compound 0.8 µM): 0.272
relative viability (Avagacestat + Bortezomib; first compound 2.53 µM): 0.322
relative viability (Avagacestat + Bortezomib; first compound 8 µM): 0.318
relative viability (Avagacestat + Navitoclax; first compound 0.08 µM): 1.16
relative viability (Avagacestat + Navitoclax; first compound 0.253 µM): 0.993
relative viability (Avagacestat + Navitoclax; first compound 0.8 µM): 1.17
relative viability (Avagacestat + Navitoclax; first compound 2.53 µM): 1.11
relative viability (Avagacestat + Navitoclax; first compound 8 µM): 0.891
relative viability (Avagacestat + Foretinib; first compound 0.08 µM): 0.315
relative viability (Avagacestat + Foretinib; first compound 0.253 µM): 0.318
relative viability (Avagacestat + Foretinib; first compound 0.8 µM): 0.384
relative viability (Avagacestat + Foretinib; first compound 2.53 µM): 0.338
relative viability (Avagacestat + Foretinib; first compound 8 µM): 0.308
relative viability (Avagacestat + Lapatinib; first compound 0.08 µM): 0.986
relative viability (Avagacestat + Lapatinib; first compound 0.253 µM): 1.28
relative viability (Avagacestat + Lapatinib; first compound 0.8 µM): 1.44
relative viability (Avagacestat + Lapatinib; first compound 2.53 µM): 1.02
relative viability (Avagacestat + Lapatinib; first compound 8 µM): 1.03
relative viability (Avagacestat + Pictilisib; first compound 0.08 µM): 0.305
relative viability (Avagacestat + Pictilisib; first compound 0.253 µM): 0.242
relative viability (Avagacestat + Pictilisib; first compound 0.8 µM): 0.226
relative viability (Avagacestat + Pictilisib; first compound 2.53 µM): 0.217
relative viability (Avagacestat + Pictilisib; first compound 8 µM): 0.225
relative viability (Avagacestat + Crizotinib; first compound 0.08 µM): 0.975
relative viability (Avagacestat + Crizotinib; first compound 0.253 µM): 0.777
relative viability (Avagacestat + Crizotinib; first compound 0.8 µM): 0.864
relative viability (Avagacestat + Crizotinib; first compound 2.53 µM): 0.587
relative viability (Avagacestat + Crizotinib; first compound 8 µM): 0.581
relative viability (Avagacestat + Linsitinib; first compound 0.08 µM): 0.982
relative viability (Avagacestat + Linsitinib; first compound 0.253 µM): 0.768
relative viability (Avagacestat + Linsitinib; first compound 0.8 µM): 0.854
relative viability (Avagacestat + Linsitinib; first compound 2.53 µM): 0.784
relative viability (Avagacestat + Linsitinib; first compound 8 µM): 0.93
relative viability (Avagacestat + Alpelisib; first compound 0.08 µM): 0.444
relative viability (Avagacestat + Alpelisib; first compound 0.253 µM): 0.387
relative viability (Avagacestat + Alpelisib; first compound 0.8 µM): 0.405
relative viability (Avagacestat + Alpelisib; first compound 2.53 µM): 0.378
relative viability (Avagacestat + Alpelisib; first compound 8 µM): 0.385
relative viability (Avagacestat + AZD7762; first compound 0.08 µM): 0.123
relative viability (Avagacestat + AZD7762; first compound 0.253 µM): 0.143
relative viability (Avagacestat + AZD7762; first compound 0.8 µM): 0.115
relative viability (Avagacestat + AZD7762; first compound 2.53 µM): 0.112
relative viability (Avagacestat + AZD7762; first compound 8 µM): 0.124
relative viability (Avagacestat + Olaparib; first compound 0.08 µM): 0.489
relative viability (Avagacestat + Olaparib; first compound 0.253 µM): 0.297
relative viability (Avagacestat + Olaparib; first compound 0.8 µM): 0.421
relative viability (Avagacestat + Olaparib; first compound 2.53 µM): 0.264
relative viability (Avagacestat + Olaparib; first compound 8 µM): 0.335
